Like-named read-outs stand apart in the source and are kept apart here.

Assay [1] relates to Staphylococcus aureus ATCC 6538. To be noted: contact time 5 minutes. The source says: The test substance was hydrogen peroxide at 1 ppm and at 0.3%, which was exposed or not exposed to photons with a wavelength from 0.001 nm-845 nm and applied to target, which included a biological medium inoculated with a viable bacteria concentration of Staphylococcus aureus ATCC 6538. Further, it may be appreciated that the control is the same microorganism.

The subject of the next assay is microbial counts. To be noted: 1 part per million, 5 minute contact time.
A further assay deals with E. coli. Put plainly: FIG. 2 microbial reduction by photon enhanced solution. The assay is classed as cell-based.

Text for microbial counts: In an example embodiment of a system for progressive reduction of the microbial count in ambient air, a room with 1,000,000 colony forming units (CFUs) is equipped with a system for performing the methods as disclosed herein. A small micron photon/phonon enhanced antimicrobial dry fog of an enhanced oxidizing agent is continuously administered into the ambient air through an existing HVAC system at a concentration of less than 1 part per million.

As to `OO` [.3% H2O2 no photon activation, hydrogen peroxide], the “Average CFU/ML” value in assay [1] turned out to be 4.05E+06 CFU/ML. The CFU/ML in assay [1] (Replicate 1) came to 4.10E+06 CFU/ML; in assay [1] (Replicate 2), 4.00E+06 CFU/ML.
`OO` [standard hydrogen peroxide, hydrogen peroxide]: the microbial reduction result in the assay with microbial counts is on record as “little or no microbial reduction”.
For `OO` [1 ppm H2O2 no photon activation, hydrogen peroxide], in assay [1], the “Average CFU/ML” value was 4.05E+06 CFU/ML. In addition, the CFU/ML in assay [1] (Replicate 1) and in assay [1] (Replicate 2) was 4.10E+06 CFU/ML throughout.
As for `OO` [hydrogen peroxide], the “microbial (E. coli) reduction” value in the assay on E. coli was 0.0%.

The record behind these values is US11654413B2, “System and method for enhancing effectiveness of products generated from ionization, oxidation, photooxidation, photocatalytic, and photochemical reactions” (BIS SCIENCE LLC., priority 2021, dated 2023).
